The record followed here is ChEMBL document CHEMBL4038307, “Influence of a Basic Side Chain on the Properties of Hypoxia-Selective Nitro Analogues of the Duocarmycins: Demonstration of Substantial Anticancer Activity in Combination with Irradiation or Chemotherapy” (J Med Chem, 2017).

Active and inactive are the calls of the source. No cut-off for these calls is given here. Some results are limits rather than exact numbers.

The test system of data set [1] is NCI-H460. Kind of data set: Antitumor activity against human H460 cells xenografted in CD-1 Foxn1 nude mouse assessed as reduction in colony forming cells under hypoxic condition at 75 umol/kg, iv treated 5 mins after gamma irradiation measured after 18 hrs by excision assay. The format is functional, organism-based.
Data set [2] deals with SiHa. In words: Antitumor activity against human SiHa cells xenografted in CD-1 Foxn1 nude mouse assessed as log reduction in colony forming cells under hypoxic condition at 42 umol/kg, iv treated 5 mins after gamma irradiation measured after 18 hrs by excision assay. Format: functional.
Data set [3] relates to NCI-H460. Kind of data set: Antitumor activity against human H460 cells xenografted in CD-1 Foxn1 nude mouse assessed as log reduction in colony forming cells under hypoxic condition at 56 umol/kg, iv treated 5 mins after gamma irradiation measured after 18 hrs by excision assay. Format: functional. In general terms: A xenograft is tissue or cells of one species grown in another, often human tumour cells in immunodeficient mice.

In data set [4] the test system is Mus musculus. Kind of data set: Toxicity in CD-1 Foxn1 nude mouse xenografted with human 22Rv1 cells at 14 umol/kg, ip. To be noted: in vivo.
The subject of data set [5] is CWR22R. Kind of data set: Antitumor activity against human 22Rv1 cells xenografted in CD-1 Foxn1 nude mouse assessed as reduction in colony forming cells under hypoxic condition at 30 umol/kg, iv treated 5 mins after gamma irradiation measured after 18 hrs by excision assay. The format is functional, organism-based.
The subject of data set [6] is A2780. Kind of data set: Antitumor activity against human A2780 cells xenografted in CD-1 Foxn1 nude mouse assessed as median tumor growth delay time at 15 umol/kg, iv after 100 to 120 days in presence of gemcitabine. The format is functional.
The test system of data set [7] is CWR22R. Kind of data set: Antitumor activity against human 22Rv1 cells xenografted in CD-1 Foxn1 nude mouse assessed as tumor regression at 14 umol/kg, iv after 100 to 120 days in presence of docetaxel. Format: functional, organism-based.
The next data set relates to HCT-116. Kind of data set: Antitumor activity against human HCT116 cells xenografted in CD-1 Foxn1 nude mouse assessed as reduction in colony forming cells at 56 umol/kg, iv treated 5 mins after gamma irradiation measured after 18 hrs by excision assay. The format is functional, organism-based.
Data set [8] concerns CWR22R. In words: Antitumor activity against human 22Rv1 cells xenografted in CD-1 Foxn1 nude mouse assessed as median tumor growth delay time at 15 umol/kg, iv after 100 to 120 days in presence of docetaxel. The format is functional.
Data set [9] deals with CWR22R. In words: Antitumor activity against human 22Rv1 cells xenografted in CD-1 Foxn1 nude mouse assessed as tumor regrowth at 14 umol/kg, iv after 100 to 120 days. The format is functional, organism-based.
Data set [10] relates to A2780. Kind of data set: Antitumor activity against human A2780 cells xenografted in CD-1 Foxn1 nude mouse assessed as tumor regrowth at 15 umol/kg, iv after 100 to 120 days. Format: functional, organism-based.
The subject of data set [11] is Mus musculus. Kind of data set: Toxicity in CD-1 Foxn1 nude mouse xenografted with human A2780 cells assessed as change in body weight at 15 umol/kg, iv after 100 to 120 days in presence of gemcitabine. The format is organism-based. Particulars: in vivo.
In data set [12] the test system is Mus musculus. In words: Toxicity in CD-1 Foxn1 nude mouse xenografted with human A2780 cells at 15 umol/kg, iv after 100 to 120 days in presence of gemcitabine. Particulars: in vivo. The format is organism-based.
For data set [13], the system named is Mus musculus. Kind of data set: Toxicity in CD-1 Foxn1 nude mouse xenografted with human 22Rv1 cells assessed as change in body weight at 14 umol/kg, ip. Particulars: in vivo.
Another data set concerns NCI-H1299. In words: Antitumor activity against human H1299 cells xenografted in CD-1 Foxn1 nude mouse assessed as reduction in colony forming cells at 75 umol/kg, iv treated 5 mins after gamma irradiation measured after 18 hrs by excision assay. Format: functional, organism-based.
The test system of data set [14] is Mus musculus. In words: Toxicity in CD-1 Foxn1 nude mouse xenografted with human H460 cells assessed as death at 13 umol/kg, iv. Particulars: in vivo.
In data set [15] the test system is Mus musculus. Kind of data set: Toxicity in CD-1 Foxn1 nude mouse xenografted with human SiHa cells assessed as death at 13 umol/kg, iv. To be noted: in vivo.
Data set [16] relates to CWR22R. In words: Antitumor activity against human 22Rv1 cells xenografted in CD-1 Foxn1 nude mouse assessed as tumor stasis at 32 umol/kg, ip once in every two weeks after 100 to 120 days. The format is functional, organism-based.
For data set [17], the system named is CWR22R. In words: Antitumor activity against human 22Rv1 cells xenografted in CD-1 Foxn1 nude mouse assessed as median tumor growth delay time at 32 umol/kg, ip once in every two weeks after 100 to 120 days. Format: functional.
The test system of data set [18] is Mus musculus. In words: Toxicity in CD-1 Foxn1 nude mouse xenografted with human 22Rv1 cells assessed as change in body weight at 32 umol/kg, ip once in every two weeks after 100 to 120 days. Format: organism-based. To be noted: in vivo.
In data set [19] the test system is A2780. In words: Antitumor activity against human A2780 cells xenografted in CD-1 Foxn1 nude mouse assessed as tumor regression at 42 to 56 umol/kg, iv after 100 days. The format is functional, organism-based.
The test system of data set [20] is Mus musculus. In words: Toxicity in CD-1 Foxn1 nude mouse xenografted with human SiHa cells assessed as body weight change at 42 to 56 umol/kg, iv after 100 to 120 days in presence of gemcitabine. Format: organism-based. To be noted: in vivo.
Data set [21] deals with A2780. In words: Antitumor activity against human A2780 cells xenografted in CD-1 Foxn1 nude mouse assessed as tumor regression at 42 to 56 umol/kg, iv after 100 days in presence of gemcitabine. Format: functional, organism-based.
The test system of data set [22] is A2780. In words: Antitumor activity against human A2780 cells xenografted in CD-1 Foxn1 nude mouse assessed as tumor regression at 42 to 56 umol/kg, iv after 8 to 23 days in presence of gemcitabine. Format: functional, organism-based.
In data set [23] the test system is SiHa. In words: Antitumor activity against human SiHa cells xenografted in CD-1 Foxn1 nude mouse assessed as tumor regression at 42 to 56 umol/kg, iv after more than 100 days in presence of gemcitabine. Format: functional, organism-based.
For data set [24], the system named is SiHa. In words: Antitumor activity against human SiHa cells xenografted in CD-1 Foxn1 nude mouse assessed as tumor regression at 42 to 56 umol/kg, iv after more than 100 days. Format: functional, organism-based.
Data set [25] relates to Mus musculus. In words: Toxicity in CD-1 Foxn1 nude mouse xenografted with human SiHa cells assessed as sporadic acute toxicity at 42 to 56 umol/kg, iv. To be noted: in vivo.
In data set [26] the test system is Mus musculus. Kind of data set: Toxicity in CD-1 Foxn1 nude mouse xenografted with human SiHa cells assessed as lose in body weight at 133 umol/kg, ip four times for every three days after 100 to 120 days. The format is organism-based. Particulars: in vivo.
The subject of data set [27] is SiHa. In words: Antitumor activity against human SiHa cells xenografted in CD-1 Foxn1 nude mouse assessed as tumor regrowth at 237 umol/kg, ip four times for every three days after 100 to 120 days. The format is functional, organism-based.
In data set [28] the test system is A2780. Kind of data set: Antitumor activity against human A2780 cells xenografted in CD-1 Foxn1 nude mouse assessed as delay in tumor growth at 100 umol/kg, ip four times for every three days after 100 to 120 days. The format is functional, organism-based.
In data set [29] the test system is A2780. In words: Antitumor activity against human A2780 cells xenografted in CD-1 Foxn1 nude mouse assessed as tumor regression at 133 umol/kg, ip four times for every three days after 100 to 120 days. Format: functional, organism-based.
The subject of data set [30] is SiHa. Kind of data set: Antitumor activity against human SiHa cells xenografted in CD-1 Foxn1 nude mouse assessed as reduction in colony forming cells under hypoxic condition at 23.7 umol/kg, iv treated 5 mins after gamma irradiation measured after 18 hrs by excision assay. The format is functional, organism-based.
The subject of data set [31] is NCI-H460. Kind of data set: Antitumor activity against human H460 cells xenografted in CD-1 Foxn1 nude mouse assessed as reduction in colony forming cells under hypoxic condition at 23.7 umol/kg, iv treated 5 mins after gamma irradiation measured after 18 hrs by excision assay. Format: functional, organism-based.
Data set [32] relates to Mus musculus. Kind of data set: Toxicity in CD-1 Foxn1 nude mouse xenografted with human H460 cells assessed as death at 75 umol/kg, iv. To be noted: in vivo.
The subject of data set [33] is Mus musculus. Kind of data set: Toxicity in CD-1 Foxn1 nude mouse xenografted with human SiHa cells assessed as death at 75 umol/kg, iv. Particulars: in vivo.

Turning to `O=C(/C=C/c1ccc(OCCN2CCOCC2)cc1)N1CC(CCl)c2c1cc([N+](=O)[O-])c1cc(S(=O)(=O)NCCOP(=O)(O)O)ccc21` (configuration not stated), the result in the data set with NCI-H460 [1] and in the data set on SiHa [2] was Active. In addition, the Activity in the data set on NCI-H460 [3] is given as above 1.
Regarding `Nc1cc2c(c3ccc(S(=O)(=O)NCCOP(=O)(O)O)cc13)C(CCl)CN2C(=O)c1cc2cc(OCCN3CCOCC3)ccc2[nH]1` (configuration not stated), the Activity entry in the data set with Mus musculus [4] is “Non-Toxic”; with SiHa [2], above 1; with Mus musculus [11], “Non-Toxic”; with Mus musculus [12], “Non-Toxic”; in the data set with Mus musculus [13], “Non-Toxic”. Besides, the result with NCI-H460 [1], in the data set on CWR22R [5], with CWR22R [7], in the data set on HCT-116 and in the data set with NCI-H1299 was Active. The Time is 14 days in the data set on A2780 [6] and 17 days in the data set with CWR22R [8]. Moreover, the outcome with CWR22R [9] and in the data set on A2780 [10] was inactive.
For `CN(C)CCC(=O)Nc1ccc2[nH]c(C(=O)N3CC(CCl)c4c3cc([N+](=O)[O-])c3cc(S(=O)(=O)NCCOP(=O)(O)O)ccc43)cc2c1` (configuration not stated), the Activity result in the data set on Mus musculus [14] and in the data set with Mus musculus [15] was “Toxic” each time.
In the case of `CC(=O)O[C@@]12CO[C@@H]1C[C@H](O)[C@@]1(C)C(=O)[C@H](O)C3=C(C)[C@@H](OC(=O)[C@H](O)[C@@H](NC(=O)OC(C)(C)C)c4ccccc4)C[C@@](O)([C@@H](OC(=O)c4ccccc4)[C@H]21)C3(C)C` [DOCETAXEL ANHYDROUS], the outcome in the data set on CWR22R [16] was inactive. Besides, in the data set on CWR22R [17], the Time was 13 days. Besides, in the data set with Mus musculus [18], the Activity result is given as “Toxic”.
In the case of `CN(C)CCOc1ccc2[nH]c(C(=O)N3CC(CCl)c4c3cc([N+](=O)[O-])c3cc(S(=O)(=O)NCCOP(=O)(O)O)ccc43)cc2c1` (configuration not stated), the outcome in the data set with NCI-H460 [1], in the data set with CWR22R [5], with SiHa [2], in the data set with HCT-116, with A2780 [21] and in the data set on A2780 [22] was Active. Further, the outcome in the data set with SiHa [23], with SiHa [24] and in the data set with NCI-H1299 was Active. Moreover, in the data set with A2780 [19], the result was inactive. For the same compound, the Activity entry in the data set with Mus musculus [20] is reported as “Non-Toxic”; in the data set with Mus musculus [25] it was “Toxic”.
For the compound `Nc1ccn([C@@H]2O[C@H](CO)[C@@H](O)C2(F)F)c(=O)n1` [GEMCITABINE], the Activity in the data set on Mus musculus [26] came out at 5%. Moreover, the outcome in the data set with SiHa [27], in the data set on A2780 [28] and in the data set on A2780 [29] was Active.
Take `CCN(CC)CCOc1ccc2[nH]c(C(=O)N3CC(CCl)c4c3cc([N+](=O)[O-])c3cc(S(=O)(=O)NCCOP(=O)(O)O)ccc43)cc2c1` (configuration not stated): the result with SiHa [30] was Active. Besides, in the data set with NCI-H460 [31], the result was inactive.
For `CN(C)CC(=O)Nc1ccc2[nH]c(C(=O)N3CC(CCl)c4c3cc([N+](=O)[O-])c3cc(S(=O)(=O)NCCOP(=O)(O)O)ccc43)cc2c1` (configuration not stated), the Activity result with Mus musculus [32] and in the data set on Mus musculus [33] was “Non-Toxic” in each case.
